# pIC50: −log10 of the molar value.
# Test system: 317291-083-R-J1-PDC complex spheroid growth
# Assay: Anticancer human tumor 317291-083-R-J1-PDC patient-derived soft tissue sarcoma cell line growth inhibition [Asc]
# Settings: for pIC50: curve of first compound; for viability, T/C: stronger effect = lower value
# Procedure, shortened: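 Tumor cells were grown as multicellular spheroids with stromal HUVEC and mesenchymal stem cells and treated singly or in combination. Concentrations fell in half-log steps from the clinical Cmax, or from 10 microM where none was known.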
# 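Note: compound exposure lasted seven days after spheroids formed for three days.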
# 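Throughout, for viability, T/C: 100% = DMSO vehicle control wells.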
smiles,measurement,setting,value
C=C(F)C(=O)N1CCN(c2nc(OCC3CCCN3C)nc3c2CCN(c2cccc4cccc(Cl)c24)C3)CC1CC#N (centres undefined) + Cc1c(S(C)(=O)=O)c(-c2cc(F)cc(N3CCN(c4ccc(NS(=O)(=O)c5ccc(NC(CCN6CCC(C(=O)OCCCP(=O)(O)O)CC6)CSc6ccccc6)c(S(=O)(=O)C(F)(F)F)c5)cc4)CC3)c2)c(-c2ccc(Cl)cc2)n1C(C)C,pIC50,second compound 0.0316 µM,5.72
same,pIC50,second compound 0.1 µM,5.71
same,pIC50,second compound 0.316 µM,5.76
same,pIC50,second compound 1 µM,5.79
same,pIC50,second compound 3.16 µM,5.93
same,pIC50,second compound 10 µM,5.80
same,"viability, T/C","second compound 0.0316 µM, first compound 0.0316 µM",105%
same,"viability, T/C","second compound 0.0316 µM, first compound 0.1 µM",105%
same,"viability, T/C","second compound 0.0316 µM, first compound 0.316 µM",85.2%
same,"viability, T/C","second compound 0.0316 µM, first compound 1 µM",83.2%
same,"viability, T/C","second compound 0.0316 µM, first compound 3.16 µM",25.8%
same,"viability, T/C","second compound 0.0316 µM, first compound 10 µM",0.54%
same,"viability, T/C","second compound 0.1 µM, first compound 0.0316 µM",113%
same,"viability, T/C","second compound 0.1 µM, first compound 0.1 µM",97%
same,"viability, T/C","second compound 0.1 µM, first compound 0.316 µM",86.2%
same,"viability, T/C","second compound 0.1 µM, first compound 1 µM",96.7%
same,"viability, T/C","second compound 0.1 µM, first compound 3.16 µM",17.6%
same,"viability, T/C","second compound 0.1 µM, first compound 10 µM",0.18%
same,"viability, T/C","second compound 0.316 µM, first compound 0.0316 µM",80.8%
same,"viability, T/C","second compound 0.316 µM, first compound 0.1 µM",90%
same,"viability, T/C","second compound 0.316 µM, first compound 0.316 µM",77.5%
same,"viability, T/C","second compound 0.316 µM, first compound 1 µM",87.1%
same,"viability, T/C","second compound 0.316 µM, first compound 3.16 µM",11.7%
same,"viability, T/C","second compound 0.316 µM, first compound 10 µM",0.14%
same,"viability, T/C","second compound 1 µM, first compound 0.0316 µM",87.5%
same,"viability, T/C","second compound 1 µM, first compound 0.1 µM",72.9%
same,"viability, T/C","second compound 1 µM, first compound 0.316 µM",76.8%
same,"viability, T/C","second compound 1 µM, first compound 1 µM",76.3%
same,"viability, T/C","second compound 1 µM, first compound 3.16 µM",13.7%
same,"viability, T/C","second compound 1 µM, first compound 10 µM",2.51%
same,"viability, T/C","second compound 3.16 µM, first compound 0.0316 µM",100%
same,"viability, T/C","second compound 3.16 µM, first compound 0.1 µM",69.9%
same,"viability, T/C","second compound 3.16 µM, first compound 0.316 µM",74.5%
same,"viability, T/C","second compound 3.16 µM, first compound 1 µM",58.6%
same,"viability, T/C","second compound 3.16 µM, first compound 3.16 µM",7.37%
same,"viability, T/C","second compound 3.16 µM, first compound 10 µM",0.24%
same,"viability, T/C","second compound 10 µM, first compound 0.0316 µM",96.5%
same,"viability, T/C","second compound 10 µM, first compound 0.1 µM",99.1%
same,"viability, T/C","second compound 10 µM, first compound 0.316 µM",96.7%
same,"viability, T/C","second compound 10 µM, first compound 1 µM",77.9%
same,"viability, T/C","second compound 10 µM, first compound 3.16 µM",8.59%
same,"viability, T/C","second compound 10 µM, first compound 10 µM",0.29%
CCN1C(C(=O)NC23CCC(C(=O)O)(CC2)CC3)C(c2cccc(Cl)c2F)C2(C(=O)Nc3cc(Cl)ccc32)C12CCCCC2 (centres undefined) + Cc1c(S(C)(=O)=O)c(-c2cc(F)cc(N3CCN(c4ccc(NS(=O)(=O)c5ccc(NC(CCN6CCC(C(=O)OCCCP(=O)(O)O)CC6)CSc6ccccc6)c(S(=O)(=O)C(F)(F)F)c5)cc4)CC3)c2)c(-c2ccc(Cl)cc2)n1C(C)C,pIC50,second compound 0.0316 µM,< 5.52
same,pIC50,second compound 0.1 µM,< 5.52
same,pIC50,second compound 0.316 µM,< 5.52
same,pIC50,second compound 1 µM,< 5.52
same,pIC50,second compound 3.16 µM,< 5.52
same,pIC50,second compound 10 µM,< 5.52
same,"viability, T/C","second compound 0.0316 µM, first compound 0.00949 µM",108%
same,"viability, T/C","second compound 0.0316 µM, first compound 0.03 µM",122%
same,"viability, T/C","second compound 0.0316 µM, first compound 0.0949 µM",99.7%
same,"viability, T/C","second compound 0.0316 µM, first compound 0.3 µM",95.1%
same,"viability, T/C","second compound 0.0316 µM, first compound 0.949 µM",83.6%
same,"viability, T/C","second compound 0.0316 µM, first compound 3 µM",80.5%
same,"viability, T/C","second compound 0.1 µM, first compound 0.00949 µM",110%
same,"viability, T/C","second compound 0.1 µM, first compound 0.03 µM",90.2%
same,"viability, T/C","second compound 0.1 µM, first compound 0.0949 µM",89.5%
same,"viability, T/C","second compound 0.1 µM, first compound 0.3 µM",98.2%
same,"viability, T/C","second compound 0.1 µM, first compound 0.949 µM",108%
same,"viability, T/C","second compound 0.1 µM, first compound 3 µM",73.4%
same,"viability, T/C","second compound 0.316 µM, first compound 0.00949 µM",80.9%
same,"viability, T/C","second compound 0.316 µM, first compound 0.03 µM",90.8%
same,"viability, T/C","second compound 0.316 µM, first compound 0.0949 µM",90.3%
same,"viability, T/C","second compound 0.316 µM, first compound 0.3 µM",98.4%
same,"viability, T/C","second compound 0.316 µM, first compound 0.949 µM",91.5%
same,"viability, T/C","second compound 0.316 µM, first compound 3 µM",67.6%
same,"viability, T/C","second compound 1 µM, first compound 0.00949 µM",92.2%
same,"viability, T/C","second compound 1 µM, first compound 0.03 µM",90.3%
same,"viability, T/C","second compound 1 µM, first compound 0.0949 µM",68.9%
same,"viability, T/C","second compound 1 µM, first compound 0.3 µM",90.2%
same,"viability, T/C","second compound 1 µM, first compound 0.949 µM",89.7%
same,"viability, T/C","second compound 1 µM, first compound 3 µM",58%
same,"viability, T/C","second compound 3.16 µM, first compound 0.00949 µM",83.9%
same,"viability, T/C","second compound 3.16 µM, first compound 0.03 µM",84.1%
same,"viability, T/C","second compound 3.16 µM, first compound 0.0949 µM",68.6%
same,"viability, T/C","second compound 3.16 µM, first compound 0.3 µM",82.1%
same,"viability, T/C","second compound 3.16 µM, first compound 0.949 µM",85.9%
same,"viability, T/C","second compound 3.16 µM, first compound 3 µM",63.1%
same,"viability, T/C","second compound 10 µM, first compound 0.00949 µM",99.3%
same,"viability, T/C","second compound 10 µM, first compound 0.03 µM",102%
same,"viability, T/C","second compound 10 µM, first compound 0.0949 µM",90.8%
same,"viability, T/C","second compound 10 µM, first compound 0.3 µM",85.4%
same,"viability, T/C","second compound 10 µM, first compound 0.949 µM",94.8%
same,"viability, T/C","second compound 10 µM, first compound 3 µM",75.8%

# — PubChem BioAssay AID1963427 (Molecular Pharmacology Branch, DTP, NCI, 2024)
